Experimental data published in patent US20260297121A1, “MITHRAMYCIN (MTM) 2’ OXIMES” (University of Kentucky Research Foundation, priority 2023, published 2026).
Like-named read-outs stand apart in the source and are kept apart here.

Columns and labels:
TC32 cells = test: Potency IC50 in TC32 cells and selectivity; assay type: cell-based; conditions: Homo sapiens, TC-32, Table 2, read-out: IC50 TC32
PANC1 = test: Cytotoxicity, resazurin fluorescence, PANC1; assay type: cell-based; conditions: read-out: GI50 PANC1
BL1395 = test: Cytotoxicity, resazurin fluorescence, BL1395; assay type: cell-based; conditions: read-out: GI50 BL1395
HepG2 = test: Cytotoxicity, resazurin fluorescence, HepG2; assay type: cell-based; conditions: read-out: GI50 HepG2
RH41 = test: Cytotoxicity, 72 hr resazurin assay, RH41 alveolar rhabdomyosarcoma; assay type: cell-based; conditions: for GI50: Homo sapiens, Rh41, alveolar; for AUC RH41: area under concentration-efficacy curve, possible range 0-20000
Source text: (§1) A fibroblast cell line (HS68 (FIG. 2E)) was used as a non-tumor control. The area under the concentration-efficacy curve (AUC; possible range of 0-20000) was used to estimate an alternate metric to GI50 for cases of shallow efficacy (e.g., the limited effect in HS68 cells).

RDES = test: Cytotoxicity, resazurin fluorescence, RDES; assay type: cell-based; conditions: Table 6, 72 hr, EWS cells
LNCap = test: Cytotoxicity, resazurin fluorescence, LNCap; assay type: cell-based; conditions: read-out: GI50 LNCap
RH30 = test: Cytotoxicity, 72 hr resazurin assay, RH30 alveolar rhabdomyosarcoma; assay type: cell-based; conditions: for GI50: Rh30, alveolar; for AUC RH30: area under concentration-efficacy curve, possible range 0-20000
Source text: as §1

RD = test: Cytotoxicity, 72 hr resazurin assay, RD embryonal rhabdomyosarcoma; assay type: cell-based; conditions: for GI50: Homo sapiens, RD, embryonal; for AUC RD: area under concentration-efficacy curve, possible range 0-20000
Source text: as §1

H460 = test: Cytotoxicity, resazurin fluorescence, H460; assay type: cell-based; conditions: read-out: GI50 H460
PC3 [1] = test: IC50 in PC3 cells; assay type: cell-based; conditions: Homo sapiens, PC-3, read-out: IC50 PC2, Table 2; head prints PC2, text PC3
Hela = test: Cytotoxicity, resazurin fluorescence, Hela; assay type: cell-based; conditions: read-out: GI50 Hela
SK.ES1 = test: Cytotoxicity, resazurin fluorescence, SK.ES1; assay type: cell-based; conditions: Table 6, 72 hr, EWS cells
5838 = test: Cytotoxicity, resazurin fluorescence, 5838; assay type: cell-based; conditions: Table 6; 72 hr; express EWS-ERG
PC3 [2] = test: Cytotoxicity, resazurin fluorescence, PC3; assay type: cell-based
Method: (§2) Exemplary compounds of the presently-disclosed subject matter were assessed for cytotoxicity (Table 5) in Ewing sarcoma (TC32) and non-Ewing (PC3 prostate cancer). […] Cells (1000-5000/well) were seeded in 96-well plates and allowed to attach and grow for 24 hr prior to adding compounds in half-log increments from 0.3 nM-10 μM. Cell viability was assessed after 72 hr continuous incubation with compounds using resazurin fluorescence. GI50 values were estimated using GraphPad Prism.

ES8 = test: Cytotoxicity, resazurin fluorescence, ES8; assay type: cell-based; conditions: Table 6, 72 hr, EWS cells
HS68 = test: Cytotoxicity, 72 hr resazurin assay, HS68 fibroblast; assay type: cell-based; conditions: for GI50: Homo sapiens, Hs68, fibroblast, non-tumor control; for AUC HS68: area under concentration-efficacy curve, possible range 0-20000
Source text: as §1

rhabdomyosarcoma cells = test: Cytotoxicity, 72 hr resazurin assay, four rhabdomyosarcoma cell lines; assay type: cell-based; conditions: JR1, RD, RH30, RH41, read-out: GI50 range in the four cell lines tested
Source text: as §1

TC71 = test: Cytotoxicity, resazurin fluorescence, TC71; assay type: cell-based; conditions: Table 6, 72 hr, EWS cells
EWS cells = test: Cytotoxicity, average over Ewing (EWS) cell panel; assay type: cell-based; conditions: Table 6; 72 hr; average of EWS cells
Method: as §2

log P = assay type: physicochemical; conditions: Table 2
JR1 = test: Cytotoxicity, 72 hr resazurin assay, JR1 embryonal rhabdomyosarcoma; assay type: cell-based; conditions: for AUC JR1: area under concentration-efficacy curve, possible range 0-20000; for GI50: embryonal
Source text: as §1

A673 = test: Cytotoxicity, resazurin fluorescence, A673; assay type: cell-based; conditions: Table 6, 72 hr, EWS cells
A549 = test: Cytotoxicity, resazurin fluorescence, A549; assay type: cell-based; conditions: read-out: GI50 A549
ES3 = test: Cytotoxicity, resazurin fluorescence, ES3; assay type: cell-based; conditions: Table 6; 72 hr; EWS cells
Non EWS cells = test: Cytotoxicity, average over non-Ewing cell panel; assay type: cell-based; conditions: read-out: GI50 Average, Non EWS cells
Method: as §2

TC32 = test: Cytotoxicity, resazurin fluorescence, TC32; assay type: cell-based
Method: as §2

ES4 = test: Cytotoxicity, resazurin fluorescence, ES4; assay type: cell-based; conditions: Table 6; 72 hr; EWS cells
ES7 = test: Cytotoxicity, resazurin fluorescence, ES7; assay type: cell-based; conditions: Table 6, 72 hr, EWS cells
DU145 = test: Cytotoxicity, resazurin fluorescence, DU145; assay type: cell-based; conditions: read-out: GI50 DU145
EWS-FLI1 = conditions: screen of more than 50,000 natural products and synthetic compounds; cited from earlier work
[3] = cited from earlier work
[4] = Table 6, 72 hr, lymphocyte origin
[5] = Table 6, 72 hr, average of non EWS cells
[6] = Homo sapiens, TC-32, 72 h, read-out: GI50 TC32, Table 5

Compound: COC(C(=NOCc1cc2ccccc2[nH]1)C(O)C(C)O)C1Cc2cc3cc(OC4CC(OC5CC(O)C(O)C(C)O5)C(O)C(C)O4)c(C)c(O)c3c(O)c2C(=O)C1OC1CC(OC2CC(OC3CC(C)(O)C(O)C(C)O3)C(O)C(C)O2)C(O)C(C)O1 (stereo not shown) [YL-C09]
- IC50 (TC32 cells): 1.96 nM
- GI50 (PANC1; Homo sapiens, PANC-1, Table 6, 72 hr, non EWS cells): 33.4 nM
- GI50 (BL1395; [4]): 24.1 nM
- GI50 (HepG2; Homo sapiens, HepG2, Table 6, 72 hr, hepatic origin): 80.1 nM
- GI50 (RH41): 24.1 nM
- AUC RH41 (RH41): 9239
- GI50 (RDES; RD-ES): 16.8 nM
- GI50 (LNCap; Homo sapiens, LNCaP, Table 6, 72 hr, non EWS cells): 63.3 nM
- GI50 (RH30): 24.3 nM
- AUC RH30 (RH30): 7400
- GI50 (RD): 20.7 nM
- AUC RD (RD): 8443
- GI50 (H460; Homo sapiens, NCI-H460, Table 6, 72 hr, non EWS cells): 21.5 nM
- IC50 (PC3 [1]): 5.65 nM
- GI50 (Hela; Homo sapiens, HeLa, Table 6, 72 hr, non EWS cells): 27.1 nM
- GI50 (SK.ES1; Homo sapiens, SK-ES1): 18 nM
- GI50 5838: 27.5 nM
- GI50 (PC3 [2]; Homo sapiens, PC-3, 72 h, Table 6, non EWS cells, read-out: GI50 PC3): 19.3 nM
- GI50 (ES8; Homo sapiens, ES8): 31.5 nM
- GI50 (HS68): 1240 nM
- AUC HS68 (HS68): 15517
- GI50 (rhabdomyosarcoma cells): 15 to 25 nM
- GI50 (TC71; Homo sapiens, TC-71): 11.5 nM
- GI50 (EWS cells): 21.1 nM
- logP (log P): 1.9
- AUC JR1 (JR1): 8554
- GI50 (JR1): 15 nM
- GI50 (A673; Homo sapiens, A673): 38.1 nM
- GI50 (A549; Homo sapiens, A549, Table 6, 72 hr, non EWS cells): 22.6 nM
- GI50 (ES3): 19.2 nM
- GI50 (Non EWS cells; [5]): 34.5 nM
- GI50 (TC32; [6]): 17 nM
- GI50 (ES4): 16.6 nM
- GI50 (ES7; Homo sapiens, ES7): 14.5 nM

Compound: COC(C(=NOCCNC(=O)c1[nH]c2ccc(Cl)cc2c1-c1c(C)noc1C)C(O)C(C)O)C1Cc2cc3cc(OC4CC(OC5CC(O)C(O)C(C)O5)C(O)C(C)O4)c(C)c(O)c3c(O)c2C(=O)C1OC1CC(OC2CC(OC3CC(C)(O)C(O)C(C)O3)C(O)C(C)O2)C(O)C(C)O1 (stereo not shown) [YL-C110]
- IC50 (TC32 cells): 2.18 nM
- GI50 (PANC1; Homo sapiens, PANC-1, 72 h): 87.5 nM
- GI50 (BL1395; Lymphocyte, 72 h): 49.4 nM
- GI50 (HepG2; Homo sapiens, HepG2, 72 h): 466 nM
- GI50 (RH41): 24.7 nM
- AUC RH41 (RH41): 9477
- GI50 (RDES; RD-ES): 13.3 nM
- GI50 (LNCap; Homo sapiens, LNCaP, 72 h): 44.3 nM
- GI50 (RH30): 21 nM
- AUC RH30 (RH30): 7413
- GI50 (RD): 22.4 nM
- AUC RD (RD): 8367
- GI50 (H460; Homo sapiens, NCI-H460, 72 h): 33.2 nM
- IC50 (PC3 [1]): 7.1 nM
- GI50 (Hela; Homo sapiens, HeLa, 72 h): 102 nM
- GI50 (SK.ES1; Homo sapiens, SK-ES1): 18.8 nM
- GI50 (DU145; Homo sapiens, DU-145, 72 h): 16.2 nM
- GI50 5838: 26.6 nM
- GI50 (PC3 [2]; Homo sapiens, PC-3, 72 h, read-out: GI50 PC3, Table 5): 27 nM
- GI50 (PC3 [2]; Homo sapiens, PC-3, 72 h, read-out: GI50 PC3, Table 6, non EWS cells): 26.8 nM
- GI50 (ES8; Homo sapiens, ES8): 16.6 nM
- GI50 (HS68): 33.6 nM
- AUC HS68 (HS68): 16245
- GI50 (rhabdomyosarcoma cells): 15 to 25 nM
- GI50 (TC71; Homo sapiens, TC-71): 10.7 nM
- GI50 (EWS cells): 17.6 nM
- logP (log P): 2.56
- AUC JR1 (JR1): 8535
- GI50 (JR1): 14.9 nM
- GI50 (A673; Homo sapiens, A673): 33.5 nM
- GI50 (A549; Homo sapiens, A549, 72 h): 46.7 nM
- GI50 (ES3): 18.8 nM
- GI50 (Non EWS cells; 72 h): 96.9 nM
- GI50 (TC32; [6]): 14 nM
- GI50 (TC32; Homo sapiens, TC-32, 72 h, read-out: GI50 TC32, Table 6, EWS cells): 14.3 nM
- GI50 (ES4): 10.1 nM
- GI50 (ES7; Homo sapiens, ES7): 13.6 nM

Compound: mithramycin A [MTM, reference compound]
- GI50 (PANC1; Table 6, 72 hr, non EWS cells): 22.3 nM
- GI50 (BL1395; [4]): 9.9 nM
- GI50 (HepG2; Table 6, 72 hr, hepatic origin): 28.4 nM
- GI50 (RDES): 10.6 nM
- GI50 (LNCap; Table 6, 72 hr, non EWS cells): 82.7 nM
- GI50 (H460; Table 6, 72 hr, non EWS cells): 6.8 nM
- GI50 (Hela; Table 6, 72 hr, non EWS cells): 28.4 nM
- GI50 (SK.ES1): 10.2 nM
- inhibition of EWS-FLI1 (EWS-FLI1): top inhibitor
- GI50 (DU145; Table 6, 72 hr, non EWS cells): 16.4 nM
- GI50 5838: 11.2 nM
- GI50 (PC3 [2]; Table 5, 72 hr, read-out: GI50 PC3): 11 nM
- GI50 (PC3 [2]; Table 6, 72 hr, non EWS cells, read-out: GI50 PC3): 11.3 nM
- GI50 (ES8): 17.4 nM
- clinical trial outcome ([3]; NCI clinical study, Ewing sarcoma patients): terminated early, due to toxicities
- therapeutic index ([3]; clinical evaluation, 1960s and 70s): narrow therapeutic index
- GI50 (TC71): 10.3 nM
- GI50 (EWS cells): 10.9 nM
- GI50 (A673): 9.1 nM
- GI50 (A549; Table 6, 72 hr, non EWS cells): 54 nM
- GI50 (ES3): 12.8 nM
- GI50 (Non EWS cells; [5]): 28.9 nM
- GI50 (TC32; Table 5, 72 hr, read-out: GI50 TC32): 10 nM
- GI50 (TC32; Table 6, 72 hr, EWS cells, read-out: GI50 TC32): 10.4 nM
- GI50 (ES4): 7.3 nM
- GI50 (ES7): 10 nM
